Assay results from article PMC9577195, “Pharmacokinetics, bioavailability, and plasma protein binding study of glytrexate, a novel multitarget antifolate” (Frontiers in Pharmacology, 2022).

Legend:
KB tumor cells = test system: KB tumor cells; parameters: method as in Xing et al., 2017; settings: positive control, ref Xing et al., 2017, read-out: IC50, inhibitory action on KB tumor cells; cited from earlier work
[1] = parameters: method as in Pangeni et al., 2018; settings: rat, ref Pangeni et al., 2018, cited from earlier work
human plasma proteins = test system: human plasma proteins; parameters: method as in Robinson et al., 2004; settings: ref Robinson et al., 2004; cited from earlier work
[2] = Pharmacokinetics and bioavailability in rats after single oral and intravenous doses; type: in vivo, Sprague-Dawley rats; settings: rat, pemetrexed 20 mg/kg vs glytrexate 25 mg/kg

oral AUC of pemetrexed relative to oral glytrexate [2]: approximately 12 fold
Structure (SMILES): Nc1nc2[nH]cc(CCc3ccc(C(=O)N[C@@H](CCC(=O)O)C(=O)O)cc3)c2c(=O)[nH]1 [pemetrexed]
IC50 (KB tumor cells): 70 nM
AUC after intravenous administration ([1]; intravenous 10 mg/kg): 31.3 ± 5.34 μg⋅h/mL
T1/2 after intravenous administration ([1]; intravenous): 34.4 ± 4.26 min
AUC after oral administration ([1]; oral 20 mg/kg): 7.55 ± 0.938 μg⋅h/mL
oral bioavailability [1]: 12.0 ± 1.45%
human plasma protein binding rate (human plasma proteins): 81%
